Values quoted from earlier work in patent publication US7723019B2, “Organic cation transporter preferentially expressed in hematopoietic cells and leukemias and uses thereof” (University of Kentucky Research Foundation, priority 2003, dated 2010).
Values joined by “and” are separate entries in the source; they are usually repeats but may differ in a detail not shown here. Equal entries are not always repeated. Where two headings read alike, the source gives them in different places.

Key:
OCT2 (SLC22A2) = molecular target: T1, OCT2 (SLC22A2) (Homo sapiens, UniProt O15244)
T1 sequence (O15244 1-555): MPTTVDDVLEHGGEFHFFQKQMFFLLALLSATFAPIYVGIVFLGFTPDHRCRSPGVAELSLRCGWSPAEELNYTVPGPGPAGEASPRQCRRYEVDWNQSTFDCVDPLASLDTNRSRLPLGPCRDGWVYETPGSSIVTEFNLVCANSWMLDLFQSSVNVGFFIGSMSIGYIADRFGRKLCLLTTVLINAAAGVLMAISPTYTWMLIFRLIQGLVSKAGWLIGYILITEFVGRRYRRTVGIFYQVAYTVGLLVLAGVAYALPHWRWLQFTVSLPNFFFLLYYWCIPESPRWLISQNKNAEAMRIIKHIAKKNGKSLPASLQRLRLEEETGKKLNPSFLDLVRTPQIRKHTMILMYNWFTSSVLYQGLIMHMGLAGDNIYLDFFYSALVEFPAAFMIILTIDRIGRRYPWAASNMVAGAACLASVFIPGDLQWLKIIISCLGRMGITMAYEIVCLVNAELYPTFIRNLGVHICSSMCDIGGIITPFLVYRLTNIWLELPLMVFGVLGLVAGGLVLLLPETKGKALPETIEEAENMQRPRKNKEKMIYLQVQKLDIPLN

OCTN2 (SLC22A5) = molecular target: T2, OCTN2 (SLC22A5) (Homo sapiens, UniProt O76082)
T2 sequence (O76082 1-557): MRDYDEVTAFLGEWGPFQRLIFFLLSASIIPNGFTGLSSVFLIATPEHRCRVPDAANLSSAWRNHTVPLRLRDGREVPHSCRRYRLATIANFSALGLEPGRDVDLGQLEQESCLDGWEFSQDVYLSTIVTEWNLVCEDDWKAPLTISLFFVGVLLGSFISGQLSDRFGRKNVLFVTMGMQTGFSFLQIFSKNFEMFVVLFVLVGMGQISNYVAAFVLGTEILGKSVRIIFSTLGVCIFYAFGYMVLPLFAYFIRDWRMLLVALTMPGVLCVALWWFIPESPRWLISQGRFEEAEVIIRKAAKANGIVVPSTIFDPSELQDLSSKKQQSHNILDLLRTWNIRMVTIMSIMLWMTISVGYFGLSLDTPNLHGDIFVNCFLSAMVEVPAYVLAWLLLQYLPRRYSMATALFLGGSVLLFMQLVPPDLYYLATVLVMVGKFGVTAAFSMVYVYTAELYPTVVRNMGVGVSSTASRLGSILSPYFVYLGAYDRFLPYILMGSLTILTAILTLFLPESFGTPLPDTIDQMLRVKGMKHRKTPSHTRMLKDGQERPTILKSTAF

[1] = system: RFC1-transfected MTX^R ZR75 cell line; details: RFC1 transfection into transport-deficient MTX^R ZR75 cells, relative to control cell clones
[2] = system: reduced folate carrier (RFC); details: read-out: Km for MTX, approximately
OCTN1 (SLC22A4) = molecular target: T3, OCTN1 (SLC22A4) (Homo sapiens, UniProt Q9H015); details: OCTN1, cell type Fibroblasts
T3 sequence (Q9H015 1-551): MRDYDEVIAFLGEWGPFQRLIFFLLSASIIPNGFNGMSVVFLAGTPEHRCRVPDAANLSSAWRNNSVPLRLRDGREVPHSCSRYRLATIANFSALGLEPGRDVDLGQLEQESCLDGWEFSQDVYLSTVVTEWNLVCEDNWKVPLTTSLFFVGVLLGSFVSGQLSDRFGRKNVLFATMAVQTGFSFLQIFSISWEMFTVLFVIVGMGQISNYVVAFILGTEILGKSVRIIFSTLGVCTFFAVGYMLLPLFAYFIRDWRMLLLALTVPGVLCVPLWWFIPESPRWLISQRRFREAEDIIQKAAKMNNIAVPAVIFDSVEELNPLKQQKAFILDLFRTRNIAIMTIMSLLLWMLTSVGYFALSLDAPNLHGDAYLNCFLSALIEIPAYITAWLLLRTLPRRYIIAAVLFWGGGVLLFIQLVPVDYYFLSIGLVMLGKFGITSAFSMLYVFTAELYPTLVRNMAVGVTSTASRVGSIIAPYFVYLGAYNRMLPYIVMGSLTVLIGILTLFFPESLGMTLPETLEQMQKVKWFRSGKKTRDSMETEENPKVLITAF

OCT1 (SLC22A1) = molecular target: T4, OCT1 (SLC22A1) (Homo sapiens, UniProt O15245); details: OCT1, cell type Xenopus
T4 construct: host or cells: HeLa; Xenopus
T4 sequence (O15245 1-554): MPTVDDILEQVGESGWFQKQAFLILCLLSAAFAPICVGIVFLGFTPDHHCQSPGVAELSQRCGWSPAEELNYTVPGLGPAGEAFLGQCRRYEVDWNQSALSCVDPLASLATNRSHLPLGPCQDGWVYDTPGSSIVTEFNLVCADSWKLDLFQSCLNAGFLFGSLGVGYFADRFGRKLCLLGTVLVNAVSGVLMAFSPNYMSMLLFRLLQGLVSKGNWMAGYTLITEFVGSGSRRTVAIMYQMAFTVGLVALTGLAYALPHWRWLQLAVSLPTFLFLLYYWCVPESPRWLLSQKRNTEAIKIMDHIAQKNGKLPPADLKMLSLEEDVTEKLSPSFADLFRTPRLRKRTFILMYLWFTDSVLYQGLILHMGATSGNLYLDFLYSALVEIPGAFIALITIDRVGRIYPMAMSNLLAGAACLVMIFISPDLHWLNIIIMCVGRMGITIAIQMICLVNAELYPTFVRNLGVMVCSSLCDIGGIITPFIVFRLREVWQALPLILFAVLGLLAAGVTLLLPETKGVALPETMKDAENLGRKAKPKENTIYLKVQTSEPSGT

NC[C@H](O)c1ccc(O)c(O)c1 [Norepinephrine]
KT (OCT2 (SLC22A2); OCT2, cell type Xenopus): 1900 µM

CC[N+](CC)(CC)CC [TEA, tetraethylammonium]
KT (OCT3 (SLC22A3); OCT3, cell type HeLa): 2500 µM

C[N+](C)(C)C[C@@H](O)CC(=O)[O-] [D-Carnitine]
KT (OCTN2 (SLC22A5); OCTN2, cell type HEK293): 10.9 µM
KT (OCTN2 (SLC22A5); OCTN2, cell type Xenopus): 98 µM

CC12CC3CC(C)(C1)CC(N)(C3)C2 [Memantine]
KT (OCT2 (SLC22A2); OCT2, cell type Xenopus): 34 µM

NCCc1ccc(O)c(O)c1 [Dopamine]
KT (OCT2 (SLC22A2); OCT2, cell type HEK293): 330 µM
KT (OCT2 (SLC22A2); OCT2, cell type Xenopus): 390 µM

CN(Cc1cnc2nc(N)nc(N)c2n1)c1ccc(C(=O)N[C@@H](CCC(=O)O)C(=O)O)cc1 [MTX, Methotrexate]
increase in 6-hour MTX uptake [1]: 20 fold
increase in sensitivity to MTX [1]: 250 fold
Km [2]: 0.8 to 26 µM

C[N+](C)(C)C[C@H](O)CC(=O)[O-] [L-Carnitine]
KT (OCTN1 (SLC22A4)): 6.6 µM
KT (OCTN2 (SLC22A5); OCTN2, cell type HEK293): 4.34 µM and 4.3 µM
KT (OCTN2 (SLC22A5); OCTN2, cell type JAR): 3.5 µM
KT (OCTN2 (SLC22A5); OCTN2, cell type Xenopus): 4.8 µM

NCCc1c[nH]c2ccc(O)cc12 [Serotonin]
KT (OCT2 (SLC22A2); OCT2, cell type Xenopus): 80 µM

NC12CC3CC(CC(C3)C1)C2 [Amantadine]
KT (OCT2 (SLC22A2); OCT2, cell type Xenopus): 27 µM

NCCc1c[nH]cn1 [Histamine]
KT (OCT2 (SLC22A2); OCT2, cell type Xenopus): 1300 µM

CC(=O)O[C@H](CC(=O)[O-])C[N+](C)(C)C [Acetyl-L-carnitine]
KT (OCTN2 (SLC22A5); OCTN2, cell type HEK293): 8.5 µM

C[n+]1ccc(-c2ccccc2)cc1 [MPP, 1-methyl-4-phenylpyridinium]
KT (OCT2 (SLC22A2); OCT2, cell type HEK293): 16 µM
KT (OCT3 (SLC22A3); OCT3, cell type HRPE): 47 µM
KT (OCT1 (SLC22A1)): 14.6 µM
